Experimental data published in patent US8609870B2, “Treating various disorders using TrkB agonists” (Emory University, priority 2008, dated 2013).

Legend:
[1] = system: TrkB; assay: TrkB phosphorylation in hippocampal neurons (immunofluorescent staining, immunoblotting); type: cell-based; conditions: hippocampal neurons
Method: Unless specifically described, primary hippocampal neurons are seeded on poly-L lysine coated coverslips in a 12-well plate. After 7 days in vitro, the neurons are treated with 100 ng/ml BDNF or variety of flavone compounds (1 μM) for 30 minutes, and then are washed with PBS. Cells are fixed with 3% formaldehyde in PBS at room temperature for 10 minutes. The cells then are permeabilized and blocked by 0.4% Triton X-100 and 2% FBS in PBS at room temperature for 15 minutes, are washed with PBS three times, and are treated with anti-MAP2 (1:200) and anti-phospho-TrkB antibodies (1:500). After staining with FITC- or Rhodamine-conjugated secondary antibody, the coverslips are mounted on slides. Fluorescent images are taken by a fluorescence microscope.
BDNF binding to TrkB induces its autophosphorylation and, subsequently, activation of downstream kinase pathways including MAPK and PI3/Akt. […] To examine whether an identified active compound stimulates TrkB-mediated downstream signaling cascades, Western analysis is performed and the activation of Akt and Erk also is monitored. […] To probe the time course of TrkB activation triggered by an identified active compound, hippocampal neurons are treated with an identified active compound at 500 nM and phosphorylation of Erk and Akt is determined over time by Western analysis. […]

[2] = system: Erk1/2 and Akt; assay: Erk1/2 and Akt activation in hippocampal neurons (Western blot); type: cell-based; conditions: hippocampal neurons
Method: BDNF binding to TrkB induces its autophosphorylation and, subsequently, activation of downstream kinase pathways including MAPK and PI3/Akt. To explore whether an identified active compound triggers TrkB activation, immunofluorescent staining on hippocampal neurons with anti-phospho TrkB antibody is conducted. To examine whether an identified active compound stimulates TrkB-mediated downstream signaling cascades, Western analysis is performed and the activation of Akt and Erk also is monitored. To test whether the stimulatory effect of an identified active compound is mediated through TrkB, cells are either untreated or treated with K252a, a selective inhibitor of the tyrosine kinase activity of the Trk family of neutrophin receptors. Cells treated with K252a block TrkB tyrosine phosphorylation in cells exposed to an identified active compound. To probe the time course of TrkB activation triggered by an identified active compound, hippocampal neurons are treated with an identified active compound at 500 nM and phosphorylation of Erk and Akt is determined over time by Western analysis. Whether stimulation of Erk and Akt by an identified active compound occurs in a dose dependent manner also is determined.
Both Akt and Erk1/2 were robustly activated by these molecules as well). […] The minimal required drug concentration was about 100-250 nM (see FIG. 7, right panels). […] To assess whether deoxygedunin provokes TrkB activation in the brain, mice (i.p.) were injected with a dose of 5 mg/kg for various time points. […] To establish that deoxygedunin is orally bioactive in provoking TrkB activation, two to three month old C57BL/6J mice were orally injected with various doses of 7,8-dihydroxyflavone or deoxygedunin then sacrificed 2 to 4 hours after administration. Brain lysates were prepared and analyzed by immunoblotting (see FIG. 10).

[3] = biological target: T1, TrkB (Homo sapiens, UniProt Q16620); assay: TrkB dimerization assay (GST pull-down, transfected HEK293 cells); type: cell-based
T1 construct: expressed in transfected cells; host or cells: HEK293
T1 sequence (Q16620 32-822, species assumed): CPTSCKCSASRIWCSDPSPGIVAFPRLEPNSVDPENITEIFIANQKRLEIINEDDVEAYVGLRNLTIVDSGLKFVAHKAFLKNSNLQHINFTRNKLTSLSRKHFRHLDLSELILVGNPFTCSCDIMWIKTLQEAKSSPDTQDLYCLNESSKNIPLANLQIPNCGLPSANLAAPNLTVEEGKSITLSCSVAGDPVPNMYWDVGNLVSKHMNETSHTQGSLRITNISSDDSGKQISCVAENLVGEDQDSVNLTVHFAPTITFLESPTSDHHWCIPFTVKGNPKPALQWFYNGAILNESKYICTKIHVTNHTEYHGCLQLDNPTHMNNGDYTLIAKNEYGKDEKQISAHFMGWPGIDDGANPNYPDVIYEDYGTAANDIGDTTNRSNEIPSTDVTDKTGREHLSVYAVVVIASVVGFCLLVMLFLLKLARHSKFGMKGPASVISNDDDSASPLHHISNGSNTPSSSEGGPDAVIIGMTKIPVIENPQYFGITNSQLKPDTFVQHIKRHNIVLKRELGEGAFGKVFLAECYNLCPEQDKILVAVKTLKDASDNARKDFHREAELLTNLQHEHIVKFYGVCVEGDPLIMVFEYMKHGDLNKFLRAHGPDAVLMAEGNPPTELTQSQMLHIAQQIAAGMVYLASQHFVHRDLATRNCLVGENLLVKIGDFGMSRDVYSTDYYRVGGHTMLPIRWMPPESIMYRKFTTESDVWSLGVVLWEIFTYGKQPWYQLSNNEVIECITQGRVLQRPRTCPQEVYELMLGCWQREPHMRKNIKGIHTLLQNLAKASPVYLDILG
T1 sequence (Q16620 32-822, species assumed): as above
Method: HEK293 cells transfected with GST-TrkB and HA-TrkA or TrkB were washed once in PBS, and lysed in 1 ml lysis buffer (50 mM Tris, pH 7.4, 150 mM NaCl, 1 mM EDTA, 0.5% Triton X-100, 1.5 mM Na3VO4, 50 mM NaF, 10 mM sodium pyrophosphate, 10 mM sodium β-glycerophosphate, 1 mM phenylmethylsulfonyl fluoride (PMSF), […], […] leupeptin, […] pepstatin A), and centrifuged for 10 minutes at 14,000×g at 4° C. The supernatant was then transferred to a fresh tube and transfected TrkB receptor was pulled down with glutathione beads. The coprecipitated proteins were resolved on SDS-PAGE. The samples were transferred to a nitrocellular membrane, and immunoblotting analysis was performed with a variety of antibodies.
BDNF is known to bind the TrkB receptor and provoke its dimerization (Barbacid, J. Neurobiol., 25:1386-1403, 1994; Klein et al, Cell, 66:395-403, 1991). To explore whether an identified active compound triggers TrkB receptor dimerization, HEK293 cells are cotransfected with GST-TrkB and HA-TrkB or HA-TrkA. The cells then are treated with BDNF or an identified active compound (0.5 μM) for 30 minutes. […]

[4] = system: caspase-3; assay: Caspase-3 activation in cortical neurons from knockout mouse pups; type: cell-based
Method: To determine whether an identified active compound selectively activates TrkB receptor and prevents neuronal cell death, cortical neurons are prepared from homozygous pups of TrkB +/− mice, which are mated to the same genotype. The activation of TrkB and down stream indicators of TrkB activation, such as Capase-3, are monitored. To further assess whether an identified active compound blocks neuronal apoptosis in a TrkB dependent manner, cortical neurons are prepared from homozygous pups of […], which are mated to the same genotype. Again, the activation of TrkB and down stream indicators of TrkB activation, such as Capase-3, are monitored.
Additionally, the spontaneous caspase-3 activation in […] was suppressed by deoxygedunin.

[5] = biological target: TrkA (Mus musculus, UniProt Q3UFB7); assay: TrkA phosphorylation in mouse brain after i.p. injection; type: in vivo; parameters: endogenous in cells; conditions: mice, 5 mg/kg i.p.
Chain of TrkA (Q3UFB7 34-799): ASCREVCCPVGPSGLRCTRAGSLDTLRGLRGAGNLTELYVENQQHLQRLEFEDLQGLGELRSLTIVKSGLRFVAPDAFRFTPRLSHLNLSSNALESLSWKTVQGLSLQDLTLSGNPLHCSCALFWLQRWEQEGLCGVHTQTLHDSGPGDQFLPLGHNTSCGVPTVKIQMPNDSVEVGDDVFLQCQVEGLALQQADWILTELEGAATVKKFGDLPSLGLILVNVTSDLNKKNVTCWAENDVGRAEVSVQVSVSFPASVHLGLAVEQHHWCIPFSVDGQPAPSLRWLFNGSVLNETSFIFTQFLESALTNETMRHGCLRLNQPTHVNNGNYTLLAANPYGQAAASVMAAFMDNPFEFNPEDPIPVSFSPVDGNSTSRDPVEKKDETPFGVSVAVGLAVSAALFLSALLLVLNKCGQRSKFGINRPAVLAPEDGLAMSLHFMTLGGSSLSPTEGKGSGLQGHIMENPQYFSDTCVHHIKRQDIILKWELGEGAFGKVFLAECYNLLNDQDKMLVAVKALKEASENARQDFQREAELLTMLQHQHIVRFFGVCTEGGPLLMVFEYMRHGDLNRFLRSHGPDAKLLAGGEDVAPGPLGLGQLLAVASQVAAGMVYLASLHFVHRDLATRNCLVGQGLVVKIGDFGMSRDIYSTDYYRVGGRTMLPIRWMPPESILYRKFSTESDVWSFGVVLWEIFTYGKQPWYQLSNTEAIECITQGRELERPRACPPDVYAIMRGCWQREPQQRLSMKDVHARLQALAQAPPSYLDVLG

For `CC(=O)O[C@@H]1C[C@H]2C(C)(C)C(=O)C=C[C@]2(C)[C@H]2CC[C@]3(C)C(=CC(=O)O[C@H]3c3ccoc3)[C@@]21C` [deoxygedunin], the TrkB phosphorylation [1] was “strong TrkB phosphorylation”, the “minimal required drug concentration for Erk1/2 and Akt activation” value [2] was 100 to 250 nM and the “Erk1/2 and Akt activation” value ([2]; time course and dose dependency) was “prominently provoked both Erk1/2 and Akt activation”. For the same molecule, the TrkB dimerization [3] was “robustly provoked TrkB dimerization with an effect even stronger than BDNF”, the “blockade of glutamate-provoked caspase-3 activation” value ([4]; TrkB −/− cortical neurons) was “not TrkB −/− neurons” and the “spontaneous caspase-3 activation” value ([4]; TrkC −/− neurons) was “suppressed”. For the same molecule, the “glutamate triggered caspase-3 activation” value ([4]; wild-type and TrkC knockout neuron experiment) was “diminished”, the “blockade of glutamate-provoked caspase-3 activation” value ([4]; wild-type cortical neurons) was “substantially blocked” and the “TrkA phosphorylation in the brain” value [5] was “not TrkA”.
